Source: patent US6462198B1, “Carbamic acid derivatives” (Hoffmann-La Roche Inc., priority 1999, dated 2002)

Experiments:
[1] = molecular target: T1, rat mGlu 1a receptor (Rattus norvegicus, UniProt P23385); test: [Ca2+]i measurement (FLIPR) on mGlu 1a transfected EBNA cells; type: cell-based; details: for agonist/antagonist: mode of action at group I mGlu receptor, [Ca2+]i FLIPR assay
T1 construct: expressed in transfected cells; host or cells: EBNA cells (transient transfection)

[2] = compounds acting as antagonists, tested against 10 μM glutamate as agonist

T1 sequence (P23385 19-1199): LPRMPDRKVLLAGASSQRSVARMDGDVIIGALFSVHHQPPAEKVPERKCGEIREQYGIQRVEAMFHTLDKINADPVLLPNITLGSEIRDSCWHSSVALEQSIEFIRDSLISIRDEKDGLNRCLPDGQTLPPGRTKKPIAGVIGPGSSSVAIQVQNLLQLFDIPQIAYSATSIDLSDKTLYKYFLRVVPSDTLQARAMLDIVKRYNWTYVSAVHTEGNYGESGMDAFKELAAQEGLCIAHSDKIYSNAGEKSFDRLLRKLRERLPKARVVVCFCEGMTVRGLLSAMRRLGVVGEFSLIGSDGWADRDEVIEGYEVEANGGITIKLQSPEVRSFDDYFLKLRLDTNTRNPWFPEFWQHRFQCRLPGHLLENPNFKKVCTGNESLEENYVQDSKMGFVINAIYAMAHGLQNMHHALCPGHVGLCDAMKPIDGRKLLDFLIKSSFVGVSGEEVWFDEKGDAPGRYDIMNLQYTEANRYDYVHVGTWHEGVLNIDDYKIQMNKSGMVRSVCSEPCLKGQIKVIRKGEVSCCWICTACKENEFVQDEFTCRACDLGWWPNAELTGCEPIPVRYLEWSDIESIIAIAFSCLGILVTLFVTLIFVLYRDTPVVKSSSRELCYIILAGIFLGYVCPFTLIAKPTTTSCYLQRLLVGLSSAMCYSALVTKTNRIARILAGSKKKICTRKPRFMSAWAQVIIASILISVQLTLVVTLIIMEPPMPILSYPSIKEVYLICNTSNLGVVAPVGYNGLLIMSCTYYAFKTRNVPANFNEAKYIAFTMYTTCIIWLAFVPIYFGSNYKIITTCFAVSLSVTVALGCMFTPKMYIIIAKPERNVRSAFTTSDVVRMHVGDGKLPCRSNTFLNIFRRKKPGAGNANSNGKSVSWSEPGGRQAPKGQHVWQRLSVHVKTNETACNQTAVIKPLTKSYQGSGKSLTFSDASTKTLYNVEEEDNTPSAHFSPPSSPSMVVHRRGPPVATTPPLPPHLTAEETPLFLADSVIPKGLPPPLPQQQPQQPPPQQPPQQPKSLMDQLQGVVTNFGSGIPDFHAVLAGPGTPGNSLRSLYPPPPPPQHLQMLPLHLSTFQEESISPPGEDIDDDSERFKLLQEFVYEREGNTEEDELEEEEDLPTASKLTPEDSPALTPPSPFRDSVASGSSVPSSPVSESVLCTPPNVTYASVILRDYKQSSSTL

melting point | Compound | also measured
114 to 115 °C | COCCc1nnc(NC(=O)C(c2ccccc2)c2ccccc2)o1 [Example 55, N-[5-(2-Methoxy-ethyl)-[1,3,4]oxadiazol-2-yl]-2,2-diphenyl-acetamide] | –
148 to 149 °C | CCc1cnc(NC(=O)C(c2ccccc2)c2ccccc2)o1 [Example 63, N-(5-Ethyl-oxazol-2-yl)-2,2-diphenyl-acetamide] | –
158 to 159 °C | O=C(Nc1nnc(CC2CC2)o1)C(c1ccccc1)c1ccccc1 [Example 59, N-(5-Cyclopropylmethyl-[1,3,4]oxadiazol-2-yl)-2,2-diphenyl-acetamide] | –
166 to 168 °C | Cc1cnc(NC(=O)C(c2ccccc2)c2ccccc2)o1 [Example 65, N-(5-Methyl-oxazol-2-yl)-2,2-diphenyl-acetamide] | IC50 ([1]; compounds acting as agonists, activation curve): 0.4 µM; agonist/antagonist [1]: agonist
99 °C | CCCCSC(=O)NC(=O)C(c1ccccc1)c1ccccc1 | –
159 to 160 °C | O=C(Nc1nnc(C2CC2)o1)C(c1ccccc1)c1ccccc1 [Example 57, N-(5-Cyclopropyl-[1,3,4]oxadiazol-2-yl)-2,2-diphenyl-acetamide] | –
178 °C | O=C(NC(=O)C(c1ccccc1)c1ccccc1)C1CC1 | –
108 °C | O=C(NC(=O)C(c1ccccc1)c1ccccc1)OCC1CC1 [Example 10, Diphenylacetyl-carbamic acid cyclopropylmethyl ester] | –
160 to 162 °C | CC(C)(C)OC(=O)NC(=O)C(c1ccccc1)c1ccccc1 | –
83 °C | CCCCC(=O)NC(=O)C(c1ccccc1)c1ccccc1 [Example 43, Pentanoic acid diphenylacetyl-amide] | –
205 °C | CCCC(=O)NC(=O)C(c1ccccc1)c1ccccc1 | –
82 to 84 °C | CCCCOC(=O)NC(=O)C(c1ccccc1)c1ccccc1 | –
135 to 137 °C | O=C(NC(=O)C(c1ccccc1)c1ccccc1)OCCN1CCOCC1 | –
122 to 124 °C | CC(C)OC(=O)NC(=O)C(c1ccccc1)c1ccccc1 [Example 4, Diphenylacetyl-carbamic acid isopropyl ester] | –
118 to 120 °C | C=CCOC(=O)NC(=O)C(c1ccccc1)c1ccccc1 [Example 3, Diphenylacetyl-carbamic acid allyl ester] | –

More lines, now with the values behind:

Compound | melting point | also measured
CCCCOC(=O)NC(=O)C(C)(c1ccccc1)c1ccccc1 [Example 25, (2,2-Diphenyl-propionyl)-carbamic acid butyl ester] | 83 °C | IC50 [1, 2]: 1.38 µM
CCOC(=O)NC(=O)C1c2ccccc2Oc2ccc(Br)cc21 (racemic) | 203 °C | –
CCCCOC(=O)NC(=O)C1c2ccccc2Sc2ccccc21 [Example 32, (9H-Thioxanthene-9-carbonyl)-carbamic acid butyl ester] | 151 to 154 °C | agonist/antagonist [1]: agonist
CCOC(=O)NC(=O)C1c2ccccc2Oc2ccccc21 | 228 °C (dec.) | –
O=C(Nc1ncco1)C1c2ccccc2Sc2ccccc21 [Example 31, 9H-Thioxanthene-9-carboxylic acid oxazol-2-ylamide] | 188 to 191 °C | –
CCOC(=O)NC(=O)C(c1cccc(C)c1)c1ncc(C(F)(F)F)cc1Cl (centres unmarked) | 146 to 147 °C | –
CCOC(=O)NC(=O)C1c2ccccc2Sc2ccccc21 | 179 to 182 °C | –
C=CCOC(=O)NC(=O)C(C)(c1ccccc1)c1ccccc1 [Example 24, (2,2-Diphenyl-propionyl)-carbamic acid allyl ester] | 89 °C | IC50 [1, 2]: 2.79 µM
CCCC(=O)NC(=O)C1c2ccccc2Oc2ccccc21 | 222 °C | –
(2,2-Diphenyl-propionyl)-carbamic acid methyl ester [Example 23] | – | IC50 [1, 2]: 6.31 µM; agonist/antagonist [1]: antagonist
CCOC(=O)NC(=O)C1c2ccccc2Oc2c1cccc2C(F)(F)F (centres unmarked) | 196 to 198 °C | –
